The structures appear in SMILES notation. Read-outs that look alike come from different tables or passages of the source.

The test system of this experiment is HT-29 cells. As to the kind of experiment: HT-29 necroptosis cell viability assay (TNF-α/SMAC mimetic/zVAD-FMK, CellTiter-Glo). Format: cell-based. The conditions noted are these: Homo sapiens. The essentials:
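HT-29 cells (~5,000/well, overnight) in FBS-free McCoy's 5A with TNF-α 10 ng/ml, SMAC mimetic 6 μM and zVAD-FMK 10 μM plus 10-point 1:3 compound titration, 20 h at 37°C. ATP measured by CellTiter-Glo luminescence; IC50 as geometric mean of duplicates.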
In general terms: ATP-based viability assays read luminescence as a measure of living cells.

Setting [1] is: HT-29, HT-29 necroptosis cell viability assay, class symbols for IC50, read-out: Activity.
[2] abbreviates: HT-29, HT-29 necroptosis cell viability, IC50 class symbols, read-out: Activity.
[3] abbreviates: HT-29, HT-29 cells, necroptosis induced by TNF-α/SMAC mimetic/zVAD-FMK, CellTiter-Glo, read-out: Activity (IC50 class).

Turning to `CCC(O)(CC)c1nc(C)c(Oc2ccc(-n3ncn(Cc4c(F)cccc4F)c3=O)cc2F)s1` [Example 581, 4-(2,6-difluorobenzyl)-2-(3-fluoro-4-((2-(3-hydroxypentan-3-yl)-4-methylthiazol-5-yl)oxy)phenyl)-2,4-dihydro-3H-1,2,4-triazol-3-one], the IC50 under setting [1] is below 100 nM.

Regarding `O=c1n(Cc2c(F)cccc2F)cnn1-c1ccc(Oc2cc(N3CC4(CCCN4)C3)ncc2Cl)c(F)c1` [Example 412, 2-(4-((5-chloro-2-(2,5-diazaspiro[3.4]octan-2-yl)pyridin-4-yl)oxy)-3-fluorophenyl)-4-(2,6-difluorobenzyl)-2,4-dihydro-3H-1,2,4-triazol-3-one], the IC50 under setting [2] fell in the range of 100 to 1000 nM.

Regarding `Cc1nc(C)n(Cc2ccc(-n3ncn(Cc4c(F)cccc4F)c3=O)cc2F)c1C(N)=O` [Example 218, 1-(4-(4-(2,6-difluorobenzyl)-5-oxo-4,5-dihydro-1H-1,2,4-triazol-1-yl)-2-fluorobenzyl)-2,4-dimethyl-1H-imidazole-5-carboxamide], the IC50 under setting [1] lay in the range of 100 to 1000 nM.

Turning to `O=c1n(Cc2c(F)cccc2F)cnn1-c1ccc(Oc2cc(N3CC4(CNC4)C3)ncc2F)c(F)c1` [Example 418, 4-(2,6-difluorobenzyl)-2-(3-fluoro-4-((5-fluoro-2-(2,6-diazaspiro[3.3]heptan-2-yl)pyridin-4-yl)oxy)phenyl)-2,4-dihydro-3H-1,2,4-triazol-3-one], the IC50 under setting [2] is below 100 nM.

As to `Cc1nc(C(=O)N2CC(NC(=O)OC(C)(C)C)C2)sc1Oc1ccc(-n2ncn(Cc3ccccc3F)c2=O)cc1F` [Example 598, tert-butyl (1-(5-(2-fluoro-4-(4-(2-fluorobenzyl)-5-oxo-4,5-dihydro-1H-1,2,4-triazol-1-yl)phenoxy)-4-methylthiazole-2-carbonyl)azetidin-3-yl)carbamate], the IC50 under setting [1] was below 100 nM.

`Cn1cc(C(N)=O)nc1Oc1ccc(-n2nc3n(c2=O)[C@H](c2ccccc2)CC3)cc1F` (single isomer, unassigned) [Example 685]: the IC50 (HT-29 cells stimulated with TNF-α (10 ng/ml), SMAC mimetic (6 μM) and zVAD-FMK (10 μM), 20 hours, CellTiter-Glo ATP luminescence, geometric mean IC50 from 10 points, read-out: Activity) is 100 to 1000 nM.

Regarding `N#C[C@@H]1CCN(c2cc(Oc3ccc(-n4ncn(Cc5c(F)cccc5F)c4=O)cc3)ccn2)C1` [Example 400, (R)-1-(4-(4-(4-(2,6-difluorobenzyl)-5-oxo-4,5-dihydro-1H-1,2,4-triazol-1-yl)phenoxy)pyridin-2-yl)pyrrolidine-3-carbonitrile], the IC50 under setting [2] was below 100 nM.

On to `Cc1nc(C2CCNC2)sc1Oc1ccc(-n2ncn(Cc3c(F)cccc3F)c2=O)cc1` (stereo not shown) [Example 549, 4-(2,6-difluorobenzyl)-2-(4-((4-methyl-2-(pyrrolidin-3-yl)thiazol-5-yl)oxy)phenyl)-2,4-dihydro-3H-1,2,4-triazol-3-one], for which, under setting [1], the IC50 is below 100 nM.

With `CC1(O)CN(c2cc(S(=O)(=O)c3ccc(-n4ncn(Cc5c(F)cccc5F)c4=O)cc3)ccn2)C1` [Example 493, 4-(2,6-difluorobenzyl)-2-(4-((2-(3-hydroxy-3-methylazetidin-1-yl)pyridin-4-yl)sulfonyl)phenyl)-2,4-dihydro-3H-1,2,4-triazol-3-one], the IC50 under setting [1] is below 100 nM.

Consider `Cc1nc(N2CCC(C)(C#N)C2)sc1Oc1ccc(-n2ncn(Cc3c(F)cccc3F)c2=O)cc1` (stereo not shown) [Example 454, 1-(5-(4-(4-(2,6-difluorobenzyl)-5-oxo-4,5-dihydro-1H-1,2,4-triazol-1-yl)phenoxy)-4-methylthiazol-2-yl)-3-methylpyrrolidine-3-carbonitrile], for which the IC50 under setting [2] is below 100 nM.

With `CN(C)c1ccccc1Oc1ccc(-n2nc(Cl)n(Cc3ccccc3)c2=O)cc1` [Example 677, 4-benzyl-5-chloro-2-(4-(2-(dimethylamino)phenoxy)phenyl)-2,4-dihydro-3H-1,2,4-triazol-3-one], the IC50 under setting [3] was in the range of 100 to 1000 nM.

On to `O=c1n(Cc2c(F)cccc2F)cnn1-c1ccc(Oc2cncs2)cc1` [Example 658], for which the IC50 under setting [3] is below 100 nM.

With `C[C@H]1[C@@H](O)CN1c1cc(Oc2ccc(-n3nc4n(c3=O)[C@H](c3ccccc3)CC4)cc2F)c(F)cn1` (single isomer, unassigned) [Example 258], under setting [2], the IC50 was below 100 nM.

(Values after US20250179061A1 (SIRONAX LTD., priority 2022, published 2025).)
